Measured values published in patent US11498899B2, “Nitrone herbicides” (FMC Corporation, priority 2016, dated 2022).

What was measured:
[1] = test system: barnyardgrass (Echinochloa crus-galli); experiment: Test A preemergence, visual injury rating 0-100 (0 no effect, 100 complete control); format: in vivo; conditions: for Barnyardgrass plant response rating (0 to 100 scale): 125 g ai/ha; for Barnyardgrass plant response rating: 500 g ai/ha, 0 to 100 scale
[2] = test system: foxtail, green (green foxtail, Setaria viridis); experiment: Test A preemergence, visual injury rating 0-100; format: in vivo
kochia (Kochia scoparia) [3] = experiment: Test A preemergence, visual injury rating 0-100; format: in vivo
[4] = test system: pigweed (Amaranthus retroflexus); experiment: Test A preemergence, visual injury rating 0-100; format: in vivo
[5] = test system: ragweed (common ragweed, Ambrosia elatior); experiment: Test A preemergence, visual injury rating 0-100; format: in vivo
[6] = test system: ryegrass, Italian (Italian ryegrass, Lolium multiflorum); experiment: Test A preemergence, visual injury rating 0-100; format: in vivo
[7] = test system: barnyardgrass (Echinochloa crus-galli); experiment: Test A postemergence, visual injury rating 0-100; format: in vivo; conditions: 0 to 100 scale
[8] = test system: blackgrass (Alopecurus myosuroides); experiment: Test A postemergence, visual injury rating 0-100; format: in vivo; conditions: 0 to 100 scale
corn (Zea mays) = experiment: Test A postemergence, visual injury rating 0-100; format: in vivo; conditions: 0 to 100 scale
[9] = test system: foxtail, green (green foxtail, Setaria viridis); experiment: Test A postemergence, visual injury rating 0-100; format: in vivo; conditions: 0 to 100 scale
[10] = test system: galium (catchweed bedstraw, Galium aparine); experiment: Test A postemergence, visual injury rating 0-100; format: in vivo; conditions: 0 to 100 scale
kochia (Kochia scoparia) [11] = experiment: Test A postemergence, visual injury rating 0-100; format: in vivo; conditions: 0 to 100 scale
[12] = test system: pigweed (Amaranthus retroflexus); experiment: Test A postemergence, visual injury rating 0-100; format: in vivo; conditions: 0 to 100 scale
[13] = test system: ragweed (common ragweed, Ambrosia elatior); experiment: Test A postemergence, visual injury rating 0-100; format: in vivo; conditions: 0 to 100 scale
[14] = test system: ryegrass, Italian (Italian ryegrass, Lolium multiflorum); experiment: Test A postemergence, visual injury rating 0-100; format: in vivo; conditions: 0 to 100 scale
[15] = test system: wheat (Triticum aestivum); experiment: Test A postemergence, visual injury rating 0-100; format: in vivo; conditions: 0 to 100 scale
[16] = test system: ducksalad (Heteranthera limosa); experiment: Test B flooded paddy test, visual rating 0-100; conditions: Flood, 250 g ai/ha, applied to paddy water, rated after 13 to 15 days
[17] = test system: barnyardgrass (Echinochloa crus-galli); experiment: Test B flooded paddy test, visual rating 0-100; conditions: Flood, 250 g ai/ha, applied to paddy water, rated after 13 to 15 days
rice (Oryza sativa) = experiment: Test B flooded paddy test, visual rating 0-100 (0 no effect, 100 complete control); conditions: Flood, 250 g ai/ha, applied to paddy water, rated after 13 to 15 days

Row | SMILES | Barnyardgrass plant response rating (0 to 100 scale) [1] | Barnyardgrass plant response rating [1] | Foxtail, Green plant response rating (0 to 100 scale) ([2]; 125 g ai/ha) | Kochia plant response rating (0 to 100 scale) (kochia (Kochia scoparia) [3]; 125 g ai/ha) | Pigweed plant response rating (0 to 100 scale) ([4]; 125 g ai/ha) | Ragweed plant response rating (0 to 100 scale) ([5]; 125 g ai/ha) | Ryegrass, Italian plant response rating (0 to 100 scale) ([6]; 125 g ai/ha) | Barnyardgrass plant response rating ([7]; 125 g ai/ha) | Barnyardgrass plant response rating ([7]; 500 g ai/ha) | Blackgrass plant response rating ([8]; 125 g ai/ha) | Blackgrass plant response rating ([8]; 500 g ai/ha) | Corn plant response rating (corn (Zea mays); 125 g ai/ha) | Corn plant response rating (corn (Zea mays); 500 g ai/ha) | Foxtail, Green plant response rating ([9]; 125 g ai/ha) | Foxtail, Green plant response rating ([9]; 500 g ai/ha) | Galium plant response rating ([10]; 125 g ai/ha) | Galium plant response rating ([10]; 500 g ai/ha) | Kochia plant response rating (kochia (Kochia scoparia) [11]; 125 g ai/ha) | Kochia plant response rating (kochia (Kochia scoparia) [11]; 500 g ai/ha) | Pigweed plant response rating ([12]; 125 g ai/ha) | also measured
1 | CC1=[N+]([O-])C(C(=O)Nc2ccccc2C(F)(F)F)C(c2ccc(C(F)(F)F)cc2)C1 (racemic) [Compound 33] | 90 | 90 | 50 | 0 | 0 | 70 | 0 | 0 | 40 | 0 | 0 | 10 | 30 | 0 | 70 | 70 | 70 | 0 | 0 | 0 | Foxtail, Green plant response rating (0 to 100 scale) ([2]; 500 g ai/ha): 100; Kochia plant response rating (0 to 100 scale) (kochia (Kochia scoparia) [3]; 500 g ai/ha): 70; Pigweed plant response rating (0 to 100 scale) ([4]; 500 g ai/ha): 50; Ragweed plant response rating (0 to 100 scale) ([5]; 500 g ai/ha): 80; Ryegrass, Italian plant response rating (0 to 100 scale) ([6]; 500 g ai/ha): 20; Pigweed plant response rating ([12]; 500 g ai/ha): 20; Ragweed plant response rating ([13]; 125 g ai/ha): 0; Ragweed plant response rating ([13]; 500 g ai/ha): 40; Ryegrass, Italian plant response rating ([14]; 125 g ai/ha): 0; Ryegrass, Italian plant response rating ([14]; 500 g ai/ha): 0; Wheat plant response rating ([15]; 125 g ai/ha): 0; Wheat plant response rating ([15]; 500 g ai/ha): 0; Ducksalad plant response rating (0 to 100 scale) [16]: 0; Barnyardgrass plant response rating (0 to 100 scale) [17]: 20; Rice plant response rating (0 to 100 scale) (rice (Oryza sativa)): 0
2 | CC1=[N+]([O-])C(C(=O)Nc2cccc(C#N)c2F)C(c2ccc(C(F)(F)F)cc2)C1 (racemic) [Compound 28] | 80 | 100 | 90 | 0 | 90 | 80 | 20 | 20 | 90 | 0 | 40 | 0 | 0 | 30 | 90 | 70 | 70 | 0 | 20 | 0 | Foxtail, Green plant response rating ([2]; 500 g ai/ha, 0 to 100 scale): 100; Kochia plant response rating (kochia (Kochia scoparia) [3]; 500 g ai/ha, 0 to 100 scale): 70; Pigweed plant response rating ([4]; 500 g ai/ha, 0 to 100 scale): 100; Ragweed plant response rating ([5]; 500 g ai/ha, 0 to 100 scale): 100; Ryegrass, Italian plant response rating ([6]; 500 g ai/ha, 0 to 100 scale): 20; Pigweed plant response rating ([12]; 500 g ai/ha): 70; Ragweed plant response rating ([13]; 125 g ai/ha): 0; Ragweed plant response rating ([13]; 500 g ai/ha): 70; Ryegrass, Italian plant response rating ([14]; 125 g ai/ha): 0; Ryegrass, Italian plant response rating ([14]; 500 g ai/ha): 20; Wheat plant response rating ([15]; 125 g ai/ha): 0; Wheat plant response rating ([15]; 500 g ai/ha): 0; Ducksalad plant response rating (0 to 100 scale) [16]: 0; Barnyardgrass plant response rating (0 to 100 scale) [17]: 30; Rice plant response rating (0 to 100 scale) (rice (Oryza sativa)): 0
